Source: US8653027B2, “Method of treatment of type-1 diabetes with humanin analogues” (The Regents of the University of California, priority 2007, dated 2014)
“Also recorded” adds a separate entry of the source. Like-named read-outs stand apart in the source and are kept apart here.

Legend:
[1] = system: NIT cells; test: Survival and STAT-3/ERK activation in NIT cells, potency compared to humanin; assay type: cell-based
[2] = system: NIT-1 cells; test: Caspase 3/7 fluorometric assay (ApoONE) of cytokine-induced apoptosis in NIT-1 cells; assay type: cell-based, Mouse
Protocol: Apoptosis is the main form of pancreatic beta cell death in animal models of type 1 diabetes mellitus. […] In this study, we used a caspase 3/7 specific fluorometric assay (ApoONE, Promega) to measure the degree of apoptosis induction by cytokines in NIT-1 cells.
Cells were cultured as described above. For the experiment, NIT-1 cells were seeded in 96-well plates at a density of 0.128×10^5 cells per well. After about 24 hours, medium was changed to FCS-free medium and the cells were exposed to TNF-α (5 ng/mL) or were kept untreated as controls. As expected, TNF-α induced apoptosis in NIT-1 cells at 48 hours.
TNF-α increased apoptosis approximately 40% compared to serum-deprived cells.

[3] = system: STAT3; test: STAT3 phosphorylation in NIT-1 cells by immunoblotting; assay type: cell-based, Mouse; settings: 100 nM HN, serum free media
Protocol: (§1) To investigate the mechanism of Humanin-induced beta cell survival, we treated NIT-1 cells with 100 nM HN in serum free media. Cell lysates were harvested and phosphorylated ERK1/2 and STAT3 were assessed by immunoblotting.
(§2) Phosphorylation of ERK (activation) occurred 15 minutes after adding HN. Phosphorylation of STAT3 (activation) was a later event, 4 hours after addition of HN (FIG. 2).

[4] = system: NOD mice; test: Onset of diabetes in NOD mice over 20-week treatment; assay type: in vivo, mouse; settings: female NOD mice, 0.7 mg/kg/d IP daily from 5 weeks of age, vs saline, 0.7 mg/kg/day
Protocol: Four-week-old female NOD mice were treated with humanin. Before treatment, mice were tested two to three times per week for nonfasting blood glucose levels. Mice with blood glucose levels higher than 300 mg/dL on three consecutive measurements were considered diabetic. Beginning at 5 weeks of age, two groups of NOD mice (n=25 each) were administered (0.7 mg/kg/d) synthetic humanin by IP injection daily (Bachem). NOD mice injected with the same volume of saline served as negative controls.

[5] = system: NIT-1 insulinoma cells; test: Serum starvation-induced apoptosis of NIT-1 cells, histone-associated DNA ELISA; assay type: cell-based, Mouse; settings: NIT-1 cells serum starved 24 hours, humanin 1 to 10000 nM
Protocol: Secondary to the pro-survival effect of humanin observed in neuronal cells, we hypothesized that humanin could be a survival factor for neuroendocrine beta cells. Mouse NIT-1 insulinoma cells were serum starved for 24 hours as control, and compared to cultures co-incubated with increasing doses of humanin ranging from 1 to 10000 nM.
Conditions were as follows: NIT-1 cells were purchased from ATCC and maintained in F-12 Ham's medium (F12-K) supplemented with 10% FBS (fetal bovine serum), 10% L-glutamine, Penicillin (100 U/ml) and Streptomycin (100 μg/ml), in 25 cm^2 tissue culture flasks (Greiner, Frickenhausen, Germany). NIT-1 cells were maintained at 37 C in a 5% CO2/95% air mixture and were passaged twice weekly by trypsination (Invitrogen life technologies, Karlsruhe, Germany). For the experiment, NIT-1 cells were seeded in 96-well plates at a density of 0.128×10^5 cells per well. After about 24 hours, medium was changed to FCS-free medium.
Apoptosis was quantified by a specific histone-associated DNA ELISA.

[6] = target: IGFBP-3 (Homo sapiens, UniProt P17936); test: IGFBP-3 binding
Chain of IGFBP-3 (P17936 28-291, species assumed): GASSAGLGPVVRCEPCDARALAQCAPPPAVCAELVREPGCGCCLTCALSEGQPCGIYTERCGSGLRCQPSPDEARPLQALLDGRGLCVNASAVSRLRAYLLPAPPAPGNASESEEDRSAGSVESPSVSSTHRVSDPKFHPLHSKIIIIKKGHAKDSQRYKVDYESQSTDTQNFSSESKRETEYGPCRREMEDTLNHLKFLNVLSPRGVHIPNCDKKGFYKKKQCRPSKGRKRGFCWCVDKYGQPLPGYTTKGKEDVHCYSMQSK

[7] = system: NOD mice; assay type: in vivo; settings: for glucose tolerance (response to glucose challenge): NOD mice, 0.7 mg/kg/d IP for 6 weeks, fasted overnight, vs saline
Protocol: As proof of principle, we examined whether a 6-week course of daily IP injected humanin (0.7 mg/kg/d) to euglycemic 9-week-old NOD mice (Taconic) could improve glucose tolerance as compared to saline-injected control mice (n=12/group). […] At the conclusion of the treatment, mice were fasted overnight and divided into groups that were subjected to IP insulin and glucose tolerance testing (n=6/group). […] We additionally harvested serum, pancreata, and various other organs from these mice for histological studies and analysis of serum humanin, IGFBP-3, and other IGF-related peptides.

[8] = system: NOD mice; test: Insulitis scoring of pancreatic sections from NOD mice; assay type: in vivo, mouse; settings: humanin-treated NOD mice vs vehicle-treated control
Text: To test whether administration of humanin regulates the extent of lymphocyte infiltration into pancreatic islets, fixed and embedded pancreatic tissues were examined. Pancreata from humanin-treated NOD mice were formalin fixed, stained with hematoxylin/eosin, and assessed in a blinded fashion to determine the degree of lymphocyte infiltration. Results were compared to tissues from saline-injected control mice. Three or four randomly selected and nonadjacent sections from each pancreas were scored independently by two blind observers and evaluated for mononuclear cell infiltration. Severity of infiltration was classified based on the degree of lymphocytic infiltration as follows: G0—normal (no infiltration); G1—peri-insulitis (mononuclear cells surrounding islets and ducts but no infiltration of the islet architecture); G2—moderate insulitis (mononuclear cells infiltrating less than 50% of the islet architecture); and G3—severe insulitis (more than 50% of the islet tissue infiltrated by lymphocytes, accompanied by a reduction in insulin staining). See Pastorale et al. (2002) Exp Biol Med (Maywood) 227:282-89.

[9] = system: ERK1/2; test: ERK1/2 phosphorylation in NIT-1 cells by immunoblotting; assay type: cell-based, Mouse; settings: 100 nM HN, serum free media
Protocol: as §1, §2

[10] = system: IGFBP-3 deficient MEFs; test: Apoptosis ELISA in IGFBP-3 deficient mouse embryonic fibroblasts; assay type: cell-based; settings: 100 nM peptide, 24 hours
Protocol: (§3) Mouse embryonic fibroblasts (MEFs) derived from normal (wild-type) and IGFBP3 deficient mice were used to test the effects of humanin and its analogues on survival. Apoptosis was measured after 24 hours with 100 nM of each peptide by ELISA. […] The increased potency seems to result from the lack of IGFBP-3 binding, because there is no additional advantage when IGFBP-3 is not present. Thus, F6A-HNG is distinct from previously described humanin derivatives.

[11] = system: normal (wild-type) MEFs; test: Apoptosis ELISA in normal (wild-type) mouse embryonic fibroblasts; assay type: cell-based; settings: 100 nM peptide, 24 hours
Protocol: as §3

[12] = system: NONcNZO10/LtJ mice; test: IP glucose tolerance test in NONcNZO10/LtJ mice (obesity-induced type 2 diabetes model); assay type: in vivo, mouse; settings: 25 μg IP twice a day for 14 days
Protocol: NONcNZO10/LtJ mice are a model for obesity-induced type 2 diabetes. NONcNZO10/LtJ mice were injected IP with 25 μg F6A-HNG twice a day for 14 days. Mice were subjected to 6 hour fast followed by an IP GTT on D15. Baseline glucose measurement was taken and the mice were injected IP with 0.5 mg/g glucose. Glucose was sampled at 0 and 90, 120 min.

F6AK21A-HNG: humanin analogue, SEQ ID NO:17 MAPRGASCLLLLTGEIDLPVARRA (synthetic humanin (HN) analogue F6AK21A-HNG)
potency in promoting survival and activating STAT-3 and ERK, compared to humanin [1]: even greater potency

TNF-α [reference compound]
increase of apoptosis compared to serum-deprived cells ([2]; TNF-α 5 ng/mL, 48 hours): approximately 40%

Humanin: 24 amino acid peptide, SEQ ID NO:1 MAPRGFSCLLLLTSEIDLPVKRRA
STAT3 activation [3]: activates ERK and STAT3
time of phosphorylation of STAT3 (activation) after addition of HN [3]: 4 h
onset of diabetes [4]: delays onset of diabetes
onset of diabetes ([4]; listed as humanin): significantly delayed the onset of diabetes
protection from serum-starvation induced apoptosis [5]: potently protected beta cells from serum-starvation induced apoptosis in a dose dependent manner
protection from serum-starvation induced apoptosis ([5]; listed as humanin): reduced the level of apoptosis
IGFBP-3 binding [6]: binds IGFBP-3
glucose tolerance (response to glucose challenge) [7]: improves glucose tolerance
glucose tolerance (response to glucose challenge) ([7]; listed as humanin): non-diabetic response to glucose challenge
tolerability of daily IP injections ([7]; mouse, in vivo, ip, 0.7 mg/kg/day): tolerated well
total number of islets infiltrated by lymphocytes [8]: significantly decreased
severity of lymphocyte infiltration (insulitis) ([8]; grades G0-G3): significantly decreased; also recorded: decreased insulitis severity
protection from serum starvation induced apoptosis (caspase 3/7 assay) ([2]; FCS-free medium, humanin 10 to 1000 nM): protects beta cells from cytokine-induced apoptosis and serum starvation induced apoptosis in a dose-dependent manner
protection from TNF-α induced apoptosis ([2]; TNF-α 5 ng/mL, 48 hours, humanin 10 to 1000 nM, caspase 3/7 assay): protected beta cells from TNF-α induced apoptosis in a dose dependent manner
ERK activation [9]: activates ERK
time of phosphorylation of ERK (activation) after adding HN [9]: 15 min

HNG: humanin analogue, SEQ ID NO:2 MAPRGFSCLLLLTGEIDLPVKRRA (synthetic humanin (HN) analogue S14G-HN (HNG))
potency on survival (apoptosis) in IGFBP-3 deficient MEFs [10]: equal potency

F6A-HNG: humanin analogue, SEQ ID NO:16 MAPRGASCLLLLTGEIDLPVKRRA (synthetic humanin (HN) analogue F6A-HNG)
potency in promoting survival and activating STAT-3 and ERK, compared to humanin [1]: even greater potency
potency on survival (apoptosis) in normal MEFs [11]: more potent
potency on survival (apoptosis) in IGFBP-3 deficient MEFs [10]: equal potency
IGFBP-3 binding [6]: does not bind IGFBP-3; also recorded: devoid of IGFBP-3 binding activity
glucose levels at 90 and 120 min ([12]; IP GTT on D15): significantly lower
glucose tolerance ([12]; IP GTT on D15 after 6 hour fast, 0.5 mg/g glucose): significantly better glucose tolerance

Z-HN: humanin analogue, SEQ ID NO:18 MAKRGLNCLPHQVSEIDLSVQKRI (synthetic humanin (HN) analogue Z-HN)
potency in promoting survival and activating STAT-3 and ERK, compared to humanin [1]: two-fold greater potency than humanin
